Source: ChEMBL document CHEMBL1287680, “C-11 diamino cryptolepine derivatives NSC748392, NSC748393, and NSC748394: anticancer profile and G-quadruplex stabilization” (Bioorg Med Chem Lett, 2010)

Assays:
Nucleic Acid = conditions: Homo sapiens
Description: Binding affinity to human G-quadruplex DNA assessed as change in melting temperature by FRET-melting assay

SK-OV-3 = assay: cells; conditions: Homo sapiens
Description: Anticancer activity against human SKOV3 cells

OVCAR-4 = assay: cells; conditions: Homo sapiens
Description: Anticancer activity against human OVCAR4 cells

OVCAR-3 = assay: cells; conditions: Homo sapiens
Description: Anticancer activity against human OVCAR-3 cells

UACC-62 = assay: cells; conditions: Homo sapiens
Description: Anticancer activity against human UACC62 cells

UACC-257 = assay: cells; conditions: Homo sapiens
Description: Anticancer activity against human UACC257 cells

SK-MEL-5 = assay: cells; conditions: Homo sapiens
Description: Anticancer activity against human SK-MEL-5 cells

M14 = assay: cells; conditions: Homo sapiens
Description: Anticancer activity against human M14 cells

Malme-3M = assay: cells; conditions: Homo sapiens
Description: Anticancer activity against human MALME-3M cells

SNB-19 = assay: cells; conditions: Homo sapiens
Description: Anticancer activity against human SNB19 cells

SF-539 = assay: cells; conditions: Homo sapiens
Description: Anticancer activity against human SF539 cells

SW-620 = assay: cells; conditions: Homo sapiens
Description: Anticancer activity against human SW620 cells

KM12 = assay: cells; conditions: Homo sapiens
Description: Anticancer activity against human KM12 cells

COLO 205 = assay: cells; conditions: Homo sapiens
Description: Anticancer activity against human COLO205 cells

NCI-H522 = assay: cells; conditions: Homo sapiens
Description: Anticancer activity against human NCI-H522 cells

NCI-H322M = assay: cells; conditions: Homo sapiens
Description: Anticancer activity against human NCI-H322M cells

EKVX = assay: cells; conditions: Homo sapiens
Description: Anticancer activity against human EKVX cells

SR = assay: cells; conditions: Homo sapiens
Description: Anticancer activity against human SR cells

MOLT-4 = assay: cells; conditions: Homo sapiens
Description: Anticancer activity against human MOLT4 cells

HL-60(TB) = assay: cells; conditions: Homo sapiens
Description: Anticancer activity against human HL-60(TB) cells

CCRF-CEM = assay: cells; conditions: Homo sapiens
Description: Anticancer activity against human CCRF-CEM cells

Vero = assay: cells; conditions: Chlorocebus sabaeus, 48 h
Description: Cytotoxicity against african green monkey Vero cells after 48 hrs by MTT assay

BT-549 = assay: cells; conditions: Homo sapiens
Description: Anticancer activity against human BT549 cells

MDA-MB-468 = assay: cells; conditions: Homo sapiens
Description: Anticancer activity against human MDA-MB-468 cells

cells = conditions: Homo sapiens, Hs-578T
Description: Anticancer activity against human Hs 578T cells

DU-145 = assay: cells; conditions: Homo sapiens
Description: Anticancer activity against human DU145 cells

PC-3 = assay: cells; conditions: Homo sapiens
Description: Anticancer activity against human PC3 cells

TK-10 = assay: cells; conditions: Homo sapiens
Description: Anticancer activity against human TK10 cells

SN12C = assay: cells; conditions: Homo sapiens
Description: Anticancer activity against human SN12C cells

RXF 393 = assay: cells; conditions: Homo sapiens
Description: Anticancer activity against human RXF393 cells

CAKI-1 = assay: cells; conditions: Homo sapiens
Description: Anticancer activity against human Caki1 cells

ACHN = assay: cells; conditions: Homo sapiens
Description: Anticancer activity against human ACHN cells

786-0 = assay: cells; conditions: Homo sapiens
Description: Anticancer activity against human 786-0 cells

in vivo = conditions: mouse, cancer cell lines
Description: Toxicity in cancer cells containing hollow fiber implanted mouse

Description for physchem: Dissociation constant, pKa of the compound by UV-visible spectroscopy

CCN(CC)CCCCNc1c2ccccc2[n+](C)c2c1[nH]c1ccccc12.[Cl-]
ΔTm (Nucleic Acid): 20.9 °C | GI50 (SK-OV-3; SK-OV-3, read-out: pGI50 (converted)): 0.251 µM | CC50 (SK-OV-3; SK-OV-3, read-out: pLC50 (converted)): 100 µM | TGI (SK-OV-3; SK-OV-3, read-out: pTGI): 1.82 µM | GI50 (OVCAR-4; OVCAR-4, read-out: pGI50 (converted)): 0.437 µM | TGI (OVCAR-4; OVCAR-4, read-out: pTGI): 1.7 µM | GI50 (OVCAR-3; OVCAR-3, read-out: pGI50 (converted)): 0.427 µM | CC50 (OVCAR-3; OVCAR-3, read-out: pLC50 (converted)): > 100 µM | TGI (OVCAR-3; OVCAR-3, read-out: pTGI): 2.45 µM | GI50 (UACC-62; UACC-62, read-out: pGI50 (converted)): 0.0832 µM | CC50 (UACC-62; UACC-62, read-out: pLC50 (converted)): 0.589 µM | TGI (UACC-62; UACC-62, read-out: pTGI): 0.234 µM | GI50 (UACC-257; UACC-257, read-out: pGI50 (converted)): 1.55 µM | CC50 (UACC-257; UACC-257, read-out: pLC50 (converted)): > 100 µM | TGI (UACC-257; UACC-257, read-out: pTGI): 5.75 µM | GI50 (SK-MEL-5; SK-MEL-5, read-out: pGI50 (converted)): 0.219 µM | CC50 (SK-MEL-5; SK-MEL-5, read-out: pLC50 (converted)): 2.24 µM | TGI (SK-MEL-5; SK-MEL-5, read-out: pTGI): 0.617 µM | GI50 (M14; M14, read-out: pGI50 (converted)): 1.35 µM | CC50 (M14; M14, read-out: pLC50 (converted)): 7.41 µM | TGI (M14; M14, read-out: pTGI): 3.16 µM | GI50 (Malme-3M; read-out: pGI50 (converted)): 0.204 µM | CC50 (Malme-3M; read-out: pLC50 (converted)): 2.51 µM | TGI (Malme-3M; read-out: pTGI): 0.646 µM | GI50 (SNB-19; SNB-19, read-out: pGI50 (converted)): 0.224 µM | CC50 (SNB-19; SNB-19, read-out: pLC50 (converted)): 89.1 µM | TGI (SNB-19; SNB-19, read-out: pTGI): 0.871 µM | GI50 (SF-539; SF-539, read-out: pGI50 (converted)): 0.427 µM | CC50 (SF-539; SF-539, read-out: pLC50 (converted)): 4.07 µM | TGI (SF-539; SF-539, read-out: pTGI): 1.62 µM | GI50 (SW-620; SW-620, read-out: pGI50 (converted)): 0.339 µM | CC50 (SW-620; SW-620, read-out: pLC50 (converted)): > 100 µM | TGI (SW-620; SW-620, read-out: pTGI): 5.25 µM | GI50 (KM12; KM12, read-out: pGI50 (converted)): 0.372 µM | CC50 (KM12; KM12, read-out: pLC50 (converted)): 70.8 µM | TGI (KM12; KM12, read-out: pTGI): 4.47 µM | GI50 (COLO 205; COLO 205, read-out: pGI50 (converted)): 0.158 µM | CC50 (COLO 205; COLO 205, read-out: pLC50 (converted)): 2.95 µM | TGI (COLO 205; COLO 205, read-out: pTGI): 0.676 µM | GI50 (NCI-H522; NCI-H522, read-out: pGI50 (converted)): 0.148 µM | CC50 (NCI-H522; NCI-H522, read-out: pLC50 (converted)): 1.82 µM | TGI (NCI-H522; NCI-H522, read-out: pTGI): 0.457 µM | GI50 (NCI-H322M; read-out: pGI50 (converted)): 0.275 µM | CC50 (NCI-H322M; read-out: pLC50 (converted)): > 100 µM | TGI (NCI-H322M; read-out: pTGI): 2.75 µM | GI50 (EKVX; read-out: pGI50 (converted)): 0.269 µM | CC50 (EKVX; read-out: pLC50 (converted)): > 100 µM | TGI (EKVX; read-out: pTGI): 3.63 µM | GI50 (SR; read-out: pGI50 (converted)): 0.372 µM | CC50 (SR; read-out: pLC50 (converted)): > 100 µM | TGI (SR; read-out: pTGI): 42.7 µM | GI50 (MOLT-4; MOLT-4, read-out: pGI50 (converted)): 0.339 µM | CC50 (MOLT-4; MOLT-4, read-out: pLC50 (converted)): > 100 µM | TGI (MOLT-4; MOLT-4, read-out: pTGI): 42.7 µM | GI50 (HL-60(TB); HL-60, read-out: pGI50 (converted)): 20.4 µM | CC50 (HL-60(TB); HL-60, read-out: pLC50 (converted)): > 100 µM | TGI (HL-60(TB); HL-60, read-out: pTGI): > 100 µM | GI50 (CCRF-CEM; read-out: pGI50 (converted)): 0.427 µM | CC50 (CCRF-CEM; read-out: pLC50 (converted)): > 100 µM | TGI (CCRF-CEM; read-out: pTGI): 2.57 µM | IC50 (Vero): 62 µM | GI50 (BT-549; BT-549, read-out: pGI50 (converted)): 1.38 µM | CC50 (BT-549; BT-549, read-out: pLC50 (converted)): 7.94 µM | TGI (BT-549; BT-549, read-out: pTGI): 3.31 µM | GI50 (MDA-MB-468; MDA-MB-468, read-out: pGI50 (converted)): 0.204 µM | CC50 (MDA-MB-468; MDA-MB-468, read-out: pLC50 (converted)): 2.14 µM | TGI (MDA-MB-468; MDA-MB-468, read-out: pTGI): 0.55 µM | GI50 (cells; read-out: pGI50 (converted)): 0.269 µM | CC50 (cells; read-out: pLC50 (converted)): 93.3 µM | TGI (cells; read-out: pTGI): 0.955 µM | GI50 (DU-145; DU-145, read-out: pGI50 (converted)): 0.17 µM | CC50 (DU-145; DU-145, read-out: pLC50 (converted)): 89.1 µM | TGI (DU-145; DU-145, read-out: pTGI): 10 µM | GI50 (PC-3; PC-3, read-out: pGI50 (converted)): 0.324 µM | CC50 (PC-3; PC-3, read-out: pLC50 (converted)): 100 µM | TGI (PC-3; PC-3, read-out: pTGI): 2.24 µM | GI50 (TK-10; TK-10, read-out: pGI50 (converted)): 2.14 µM | CC50 (TK-10; TK-10, read-out: pLC50 (converted)): > 100 µM | TGI (TK-10; TK-10, read-out: pTGI): 8.91 µM | GI50 (SN12C; read-out: pGI50 (converted)): 0.0525 µM | CC50 (SN12C; read-out: pLC50 (converted)): > 72.4 µM | TGI (SN12C; read-out: pTGI): 3.24 µM | GI50 (RXF 393; RXF 393, read-out: pGI50 (converted)): 0.389 µM | CC50 (RXF 393; RXF 393, read-out: pLC50 (converted)): 8.13 µM | TGI (RXF 393; RXF 393, read-out: pTGI): 1.51 µM | GI50 (CAKI-1; CAKI-1, read-out: pGI50 (converted)): 6.92 µM | CC50 (CAKI-1; CAKI-1, read-out: pLC50 (converted)): 100 µM | TGI (CAKI-1; CAKI-1, read-out: pTGI): 32.4 µM | GI50 (ACHN; read-out: pGI50 (converted)): 2.95 µM | CC50 (ACHN; read-out: pLC50 (converted)): > 100 µM | TGI (ACHN; read-out: pTGI): 22.4 µM | GI50 (786-0; 786-0, read-out: pGI50 (converted)): 1.91 µM | CC50 (786-0; 786-0, read-out: pLC50 (converted)): 97.7 µM | TGI (786-0; 786-0, read-out: pTGI): 6.76 µM | MTD (in vivo): 50 mg/kg | pKa (physchem): 11.6
